Reference: paper PMC6882824, “Engineering of chimeric peptides as antagonists for the G protein-coupled receptor, RXFP4” (Scientific Reports, 2019)
“Also recorded” adds a separate entry of the source.

Key:
[1] = biological target: T1, RXFP3 (Homo sapiens, UniProt Q9NSD7); experiment: Competition binding in CHO-K1-RXFP3 cells (Eu-H3B1-22R); settings: SEM
T1 construct: expressed in transfected cells; host or cells: CHO-K1 (ATCC), stably transfected
T1 sequence (Q9NSD7 1-469): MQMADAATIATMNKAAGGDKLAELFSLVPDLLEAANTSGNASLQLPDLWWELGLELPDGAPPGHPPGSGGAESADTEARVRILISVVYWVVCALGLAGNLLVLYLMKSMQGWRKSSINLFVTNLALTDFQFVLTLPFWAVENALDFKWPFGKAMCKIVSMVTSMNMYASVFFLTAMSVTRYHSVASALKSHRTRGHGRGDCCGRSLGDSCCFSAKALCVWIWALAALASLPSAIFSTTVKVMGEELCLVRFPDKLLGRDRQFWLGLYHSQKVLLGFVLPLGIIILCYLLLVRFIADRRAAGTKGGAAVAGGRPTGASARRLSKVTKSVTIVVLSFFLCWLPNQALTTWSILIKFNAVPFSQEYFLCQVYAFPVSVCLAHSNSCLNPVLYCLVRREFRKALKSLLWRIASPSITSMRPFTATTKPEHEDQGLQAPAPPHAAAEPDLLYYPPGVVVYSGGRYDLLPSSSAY
Summary of the method: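 Whole CHO-K1 cells stably expressing RXFP3 or RXFP4 were competed against 5 nM Eu-H3B1-22R (RXFP3) or 5 nM Eu-DTPA-mINSL5 (RXFP4), with europium time-resolved fluorescence as read-out. Specific binding fitted to one-site curves; triplicates, at least three independent experiments.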

[2] = biological target: T2, RXFP4 (Homo sapiens, UniProt Q8TDU9); experiment: Competition binding in CHO-K1-RXFP4 cells (Eu-DTPA-mINSL5); set-up: expressed in transfected cells; host or cells: CHO-K1 (ATCC), stably transfected; settings: SEM
[3] = tested on: RXFP3; settings: HEK-293s cells expressing rat and human RXFP3; cited from earlier work
[4] = biological target: T1, RXFP3; experiment: cAMP agonist assay (inhibition of forskolin-induced cAMP, pCRE β-galactosidase reporter) in CHO-K1-RXFP3 cells; format: cell-based; settings: CHO-K1-RXFP3 cells, inhibition of 5 µM forskolin-induced cAMP, 6 hours; mean ± SEM, n in cell
Summary of the method: (§1)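 Transfected cells stimulated with forskolin (5 µM RXFP3, 1 µM RXFP4); agonist mode ±peptide for 6 h, expressed as % forskolin activity, with 0% set by 1 µM reference agonist. Antagonist mode: peptide for 10 min, then ~EC80 agonist for 6 h. Triplicates, ≥3 independent experiments, mean ± SEM.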

[5] = biological target: T1, RXFP3; experiment: cAMP antagonist assay against 10 nM analogue 2 in CHO-K1-RXFP3 cells; format: cell-based
Summary of the method: as §1

[6] = biological target: T2, RXFP4; experiment: cAMP antagonist assay against 16.6 nM analogue 13 in CHO-K1-RXFP4 cells; format: cell-based; set-up: expressed in transfected cells; host or cells: CHO-K1 (ATCC), stably transfected
Summary of the method: as §1

[7] = biological target: T2, RXFP4; experiment: cAMP agonist assay (inhibition of forskolin-induced cAMP, pCRE β-galactosidase reporter) in CHO-K1-RXFP4 cells; format: cell-based; set-up: expressed in transfected cells; host or cells: CHO-K1 (ATCC), stably transfected; settings: CHO-K1-RXFP4 cells, inhibition of 1 µM forskolin-induced cAMP, 6 hours; mean ± SEM, n in cell
[8] = biological target: T1, RXFP3; settings: CRE-reporter gene assay; cited from earlier work
[9] = biological target: T2, RXFP4; set-up: expressed in transfected cells; method as in PMID 17606621; settings: SK-N-MC/CRE-β-gal cells expressing human RXFP4; cited from earlier work
[10] = biological target: T1, RXFP3; settings: cited from earlier work
[11] = tested on: RXFP3; settings: SK-N-MC/CRE-β-gal cells expressing human RXFP3; cited from earlier work
Description: Here we have chemically synthesized and pharmacologically characterized ΔR3/I5 for binding and cAMP potency in CHO cells stably expressing RXFP3 (CHO-RXFP3) or RXFP4 (CHO-RXFP4).

T2 sequence (Q8TDU9 whole entry): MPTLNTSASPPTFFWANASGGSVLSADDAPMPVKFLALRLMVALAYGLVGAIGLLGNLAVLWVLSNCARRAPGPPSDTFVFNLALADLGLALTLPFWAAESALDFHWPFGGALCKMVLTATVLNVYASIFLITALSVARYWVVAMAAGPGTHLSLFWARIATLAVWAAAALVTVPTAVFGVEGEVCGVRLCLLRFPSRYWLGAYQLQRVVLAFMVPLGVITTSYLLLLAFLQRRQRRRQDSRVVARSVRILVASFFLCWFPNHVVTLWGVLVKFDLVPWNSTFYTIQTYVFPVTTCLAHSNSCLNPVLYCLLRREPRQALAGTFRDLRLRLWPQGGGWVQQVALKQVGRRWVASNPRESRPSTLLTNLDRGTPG

## CC[C@H](C)[C@@H]1NC(=O)[C@H](Cc2ccccc2)NC(=O)[C@H](CCC(=O)O)NC(=O)[C@H](CCCNC(=N)N)NC(=O)CNC(=O)[C@@H](NC(=O)[C@H](CC(C)C)NC(=O)[C@H](CCCNC(=N)N)NC(=O)[C@@H](NC(=O)CNC(=O)[C@H](Cc2ccc(O)cc2)NC(=O)[C@@H]2CCCN2C(=O)[C@H](C)NC(=O)[C@H](C)NC(=O)[C@@H](N)CCCNC(=N)N)C(C)C)CSSC[C@@H]2NC(=O)[C@@H](NC(=O)[C@H](CC(C)C)NC(=O)[C@@H](NC(=O)[C@H](CCC(N)=O)NC(=O)[C@H](CC(C)C)NC(=O)[C@H](CC(=O)O)NC(=O)[C@@H]3CCC(=O)N3)[C@@H](C)O)CSSC[C@H](NC(=O)CNC(=O)[C@H](CC(=O)O)NC(=O)[C@H]([C@@H](C)O)NC2=O)C(=O)N[C@@H](CO)C(=O)N[C@@H](CCSC)C(=O)N[C@@H]([C@@H](C)O)C(=O)N[C@@H](CC(=O)O)C(=O)N[C@@H](CC(C)C)C(=O)N[C@@H](CO)C(=O)N[C@@H](C)C(=O)N[C@@H](CC(C)C)C(=O)N[C@H](C(=O)O)CSSC[C@@H](C(=O)N[C@@H](CCCNC(=N)N)C(=O)O)NC(=O)[C@H]([C@@H](C)O)NC(=O)[C@H](Cc2ccccc2)NC(=O)[C@H]([C@@H](C)CC)NC(=O)[C@H](C(C)C)NC(=O)[C@H](C)NC(=O)[C@H](CCCNC(=N)N)NC1=O [ΔR3/I5, reference compound]
[1]
  Ki: 9.77 nM
[2]
  Ki: 4.57 nM
[3]
  Agonism in [35S]-GTPγS binding, cAMP activation and dynamic mass redistribution: partial agonist
[4]
  RXFP3 Activity pEC50: unable to activate RXFP3; also recorded: No activity (3)
[5]
  IC50: 117 nM
[5]; SEM, read-out: RXFP3 Emax (antagonist efficacy)
  Emax: 100 ± 3.8%
[6]
  IC50: 17.4 nM
[6]; SEM, read-out: RXFP4 Emax (antagonist efficacy)
  Emax: 36.7 ± 7.4%
[7]
  RXFP4 Activity pEC50: Weak partial agonist (5)
[8]
  Agonist activity in CHO-RXFP3 cells: no agonist activity
[9]
  Agonist activity at RXFP4 (original report): no agonist activity
[10]
  Agonism of p38MAPK, ERK1/2 and cAMP signalling at RXFP3: weak partial agonist
[11]
  Agonist activity at RXFP3 (original report): no agonist activity
